Values of other authors in US11033512B2, “Transdermal therapeutic system containing asenapine and silicone acrylic hybrid polymer” (LTS LOHMANN Therapie-Systeme AG, priority 2017, dated 2021).

What was measured:
[1] = biological target: serotonin 5-HT2A receptors (Homo sapiens, UniProt P28223)
serotonin 5-HT2A receptors, sequence (P28223 whole entry): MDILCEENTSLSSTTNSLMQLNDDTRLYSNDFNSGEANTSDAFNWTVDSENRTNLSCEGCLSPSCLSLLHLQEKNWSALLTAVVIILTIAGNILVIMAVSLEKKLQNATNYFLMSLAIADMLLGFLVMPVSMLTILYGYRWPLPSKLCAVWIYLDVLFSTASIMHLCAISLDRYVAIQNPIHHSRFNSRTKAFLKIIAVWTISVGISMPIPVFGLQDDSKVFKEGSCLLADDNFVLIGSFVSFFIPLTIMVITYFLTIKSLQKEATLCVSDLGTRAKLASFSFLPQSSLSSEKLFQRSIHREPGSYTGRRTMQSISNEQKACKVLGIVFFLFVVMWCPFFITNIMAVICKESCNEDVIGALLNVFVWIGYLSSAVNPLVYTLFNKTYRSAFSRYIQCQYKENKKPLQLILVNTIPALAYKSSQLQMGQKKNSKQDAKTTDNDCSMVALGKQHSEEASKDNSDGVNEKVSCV

- time of peak blood plasma concentrations (following sublingual administration): 0.5 to 1.5 h
- terminal disposition half-life (following sublingual administration, therapeutic doses): ≥ 24 h
- bioavailability (if ingested): < 2%
- affinity [1]: high affinity
SMILES: CN1C[C@H]2c3ccccc3Oc3ccc(Cl)cc3[C@@H]2C1 (relative stereo) [asenapine, (3aRS,12bRS)-rel-5-chloro-2,3,3a,12b-tetrahydro-2-methyl-1H-dibenz[2,3:6,7]oxepino[4,5-c]pyrrole]
